Ends that are not written are not given here.
Experiments:
purified HLA DRB1*0101 = target: T1, purified HLA DRB1*0101 (Homo sapiens, UniProt P01903+P01911, A100R/D57E/F55L/F60I/F76Y/I96L/L162R/M171V/P40L/Q125E/R42F/V115G/Y59C); assay: HLA-DR radioligand binding inhibition assay, DRB1*0101; details: IC50 nM purified HLA DRB1 *0101, purified HLA DRB1*0101
T1 construct: purified from EBV transformed homozygous cell lines or single MHC allele transfected 721.221, C1R, or fibroblast lines; made in house
Method: (§1) Instead, wells of an opaque white 96-well Optiplate (Packard) are coated with 3 μg (100 μl@ 30 μg/ml) of HLA-specific antibody (Ab) that “capture” complexes of radiolabeled MHC and unlabeled peptide transferred from the molecular binding assay plate in 100 μl of 0.05% NP40/PBS. After a 3-hour incubation period, the supernatant is decanted and scintillation fluid (Microscint 20) added. Captured complexes are then measured on a microplate scintillation and luminescence counter (TopCount NXTTM; Packard).
(§2) HLA-DR purification. Fifteen distinct HLA-DR molecules were used in quantitative assays to measure the binding of peptides to solubilized HLA-DR molecules. […] Briefly, columns of inactivated Sepharose CL4B and Protein A Sepharose were used as pre-columns. HLA-DR molecules were captured by passage of lysates over LB3.1 monoclonal antibody (anti-HLA-DRA) columns. Antibody columns were washed with 10 mM Tris-HCL, pH8.0 with 1% (v/v) NP-40, followed by PBS containing 0.4% (w/v) n-octylglucoside.
(§3) Briefly, 1-10 nM of radiolabeled peptide was co-incubated for 2 days at either room temperature or 37° C. with 1 μM to 1 nM purified HLA-DR molecules in the presence of a cocktail of protease inhibitors. Assays were performed at various pH conditions, ranging from pH 4 to pH 7. […] After incubation, the percentage of HLA-DR-bound radioactivity is determined by capturing HLA-DR/peptide complexes on Optiplates (Packard Instruments, Meriden, Conn.) coated with the LB3.1 antibody and determining bound counts per minute using the TopCount microscintillation counter (Packard Instruments).

purified HLA DRB1*0405 = target: T2, purified HLA DRB1*0405 (Homo sapiens, UniProt P01903+P01911, A100R/A169T/D86S/F76Y/I96L/K127E/L162R/M171V/N62H/P40V/Q125Y/R42H/S133A/S149N/S66Y/V115G/V209L/W38E); assay: HLA-DR radioligand binding inhibition assay, DRB1*0405; details: IC50 nM purified HLA DRB1 *0405, purified HLA DRB1*0405
T2 construct: purified from EBV transformed homozygous cell lines or single MHC allele transfected 721.221, C1R, or fibroblast lines; made in house
Method: as §1, §2, §3

purified HLA DRB5*0101 = target: T3, purified HLA DRB5*0101 (Homo sapiens, UniProt P01903+Q30154); assay: HLA-DR radioligand binding inhibition assay, DRB5*0101; details: IC50 nM purified HLA DRB5 *0101, purified HLA DRB5*0101
T3 construct: purified from EBV transformed homozygous cell lines or single MHC allele transfected 721.221, C1R, or fibroblast lines; made in house
Method: as §1, §2, §3

purified HLA DRB1*0401 = target: T4, purified HLA DRB1*0401 (Homo sapiens, UniProt P01903+P01911, A100K/A169T/F76Y/I96L/K127E/L162R/M171V/N62H/P40V/Q125Y/R42H/S133A/S149N/S66Y/V115G/V209L/W38E); assay: HLA-DR radioligand binding inhibition assay, DRB1*0401; details: IC50 nM purified HLA DRB1 *0401, purified HLA DRB1*0401
T4 construct: purified from EBV transformed homozygous cell lines or single MHC allele transfected 721.221, C1R, or fibroblast lines; made in house
Method: as §1, §2, §3

purified HLA DRB1*1101 = target: T5, purified HLA DRB1*1101 (Homo sapiens, UniProt P01903+P01911, A100R/A169T/A87E/I96F/K41T/L162R/M171V/P40S/Q125H/Q178H/Q39Y/Q99D/R42S/S66Y/T262R/V115G/W38E); assay: HLA-DR radioligand binding inhibition assay, DRB1*1101; details: IC50 nM purified HLA DRB1 *1101, purified HLA DRB1*1101
T5 construct: purified from EBV transformed homozygous cell lines or single MHC allele transfected 721.221, C1R, or fibroblast lines; made in house
Method: as §1, §2, §3

purified HLA DRB1*1302 = target: T6, purified HLA DRB1*1302 (Homo sapiens, UniProt P01903+P01911, A100E/A169T/K41T/L162R/M171V/P40S/Q125H/Q178H/Q39Y/Q99D/R42S/S66N/T262R/V115G/W38E/Y61H); assay: HLA-DR radioligand binding inhibition assay, DRB1*1302
T6 construct: purified from EBV transformed homozygous cell lines or single MHC allele transfected 721.221, C1R, or fibroblast lines; made in house
Method: as §1, §2, §3

purified HLA DRB1*0701 = target: T7, purified HLA DRB1*0701 (Homo sapiens, UniProt P01903+P01911, A100R/A102G/A103Q/D57E/D86V/E43K/F76Y/K127E/L162R/M171V/P40G/Q125H/Q99D/R33Q/R42Y/R54Q/S133A/S66F/T210M/V115G/Y107V/Y59L/Y89S); assay: HLA-DR radioligand binding inhibition assay, DRB1*0701; details: IC50 nM purified HLA DRB1 *0701, purified HLA DRB1*0701
T7 construct: purified from EBV transformed homozygous cell lines or single MHC allele transfected 721.221, C1R, or fibroblast lines; made in house
Method: as §1, §2, §3

T5 sequence (P01903 26-254, other chains not shown): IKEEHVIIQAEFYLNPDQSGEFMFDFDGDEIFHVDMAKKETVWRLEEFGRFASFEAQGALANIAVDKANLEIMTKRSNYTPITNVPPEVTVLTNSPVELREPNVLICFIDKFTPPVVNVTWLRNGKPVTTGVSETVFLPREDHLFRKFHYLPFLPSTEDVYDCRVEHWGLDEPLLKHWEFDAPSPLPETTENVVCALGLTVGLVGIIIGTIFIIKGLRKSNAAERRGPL

Compound | IC50 (purified HLA DRB1*0101) [nM] | IC50 (purified HLA DRB1*0405) [nM] | IC50 (purified HLA DRB5*0101) [nM] | IC50 (purified HLA DRB1*0401) [nM] | IC50 (purified HLA DRB1*1101) [nM] | IC50 (purified HLA DRB1*1302) [nM] | IC50 (purified HLA DRB1*0701) [nM]
CC(C)C[C@H](NC(=O)[C@H](C)NC(=O)[C@H](CC(C)C)NC(=O)[C@@H](N)CC(C)C)C(=O)N[C@@H](CC(C)C)C(=O)N1CCC[C@H]1C(=O)N1CCC[C@H]1C(=O)NCC(=O)N[C@@H](C)C(=O)N[C@@H](C)C(=O)N[C@@H](CO)C(=O)N[C@H](C(=O)N[C@@H](CCC(N)=O)C(=O)N[C@H](C(=O)N[C@@H](CS)C(=O)O)C(C)C)[C@@H](C)O [Peptide 1622.02] | 17 | > 20000 | 17 | – | – | – | –
CC[C@H](C)[C@H](NC(=O)[C@H](CC(C)C)NC(=O)[C@H](C)NC(=O)[C@H](CC(C)C)NC(=O)CN)C(=O)N[C@@H](Cc1c[nH]cn1)C(=O)N[C@@H](Cc1c[nH]cn1)C(=O)N[C@@H](CC(N)=O)C(=O)N[C@H](C(=O)N[C@@H](Cc1c[nH]cn1)C(=O)N[C@@H](CC(C)C)C(=O)N[C@@H](CS)C(=O)N[C@@H](Cc1ccccc1)C(=O)N[C@H](C(=O)N[C@@H](Cc1c[nH]cn1)C(=O)O)C(C)C)[C@@H](C)O [Peptide 9019.0058] | – | – | – | 414 | 2800 | 18 | –
CC[C@H](C)[C@H](NC(=O)[C@H](CCCCN)NC(=O)[C@H](CCC(N)=O)NC(=O)[C@@H](N)CCC(N)=O)C(=O)N[C@@H](CCCNC(=N)N)C(=O)N[C@@H](CCCCN)C(=O)N[C@@H](Cc1ccc(O)cc1)C(=O)N[C@H](C(=O)N[C@@H](CCSC)C(=O)N[C@@H](CCCNC(=N)N)C(=O)N[C@@H](CCCNC(=N)N)C(=O)N[C@@H](CC(C)C)C(=O)N[C@@H](CC(C)C)C(=O)N[C@@H](CCC(N)=O)C(=O)N[C@@H](CCC(=O)O)C(=O)O)[C@@H](C)O [Peptide 9019.0070] | – | – | 340 | – | – | – | –
CC[C@H](C)[C@H](NC(=O)[C@H](CCCNC(=N)N)NC(=O)[C@@H](N)CCSC)C(=O)N[C@@H](CC(C)C)C(=O)N[C@@H](CCCCN)C(=O)N[C@@H](CCC(=O)O)C(=O)N[C@H](C(=O)N[C@@H](CCC(=O)O)C(=O)N[C@@H](CC(C)C)C(=O)N[C@@H](CCCNC(=N)N)C(=O)N[C@@H](CCCCN)C(=O)N[C@H](C(=O)N[C@@H](CCCCN)C(=O)N[C@H](C(=O)N[C@@H](CC(C)C)C(=O)O)C(C)C)C(C)C)[C@@H](C)O [Peptide 9019.0072] | – | – | – | – | 2130 | – | –
CSCC[C@H](NC(=O)[C@H](CC(C)C)NC(=O)[C@H](CCC(N)=O)NC(=O)[C@@H](NC(=O)[C@@H](NC(=O)[C@H](CC(C)C)NC(=O)[C@H](CCC(N)=O)NC(=O)[C@@H](NC(=O)[C@@H](N)[C@@H](C)O)C(C)C)C(C)C)[C@@H](C)O)C(=O)N1CCC[C@H]1C(=O)N[C@@H](Cc1ccc(O)cc1)C(=O)NCC(=O)N[C@@H](CS)C(=O)N[C@@H](CC(C)C)C(=O)N[C@@H](CC(C)C)C(=O)O [Peptide 9019.0080] | – | – | 3000 | – | – | – | –
CC[C@H](C)[C@H](NC(=O)[C@H](CCC(N)=O)NC(=O)[C@H](CCSC)NC(=O)[C@H](CS)NC(=O)[C@H](Cc1c[nH]c2ccccc12)NC(=O)[C@H](CC(N)=O)NC(=O)[C@H](CC(C)C)NC(=O)[C@@H](N)CC(C)C)C(=O)N[C@@H](C)C(=O)N[C@@H](CCCCN)C(=O)NCC(=O)N[C@@H](CCSC)C(=O)N[C@@H](CO)C(=O)N[C@@H](Cc1ccc(O)cc1)C(=O)N[C@@H](CC(C)C)C(=O)O [Peptide 9019.0082] | – | – | 92 | – | – | – | 380
CSCC[C@H](NC(=O)CNC(=O)[C@H](CC(C)C)NC(=O)[C@H](CC(=O)O)NC(=O)CNC(=O)[C@@H](N)CC(=O)O)C(=O)NCC(=O)N[C@@H](C)C(=O)N[C@@H](C)C(=O)N[C@@H](CCCCN)C(=O)NCC(=O)N[C@@H](CC(C)C)C(=O)N[C@@H](CCC(N)=O)C(=O)N[C@@H](CO)C(=O)N[C@@H](CC(C)C)C(=O)O [Peptide 9019.0097] | 110 | 5800 | – | – | – | 3230 | –
CC[C@H](C)[C@H](NC(=O)[C@@H](NC(=O)[C@@H]1CCCN1C(=O)[C@H](C)N)[C@@H](C)O)C(=O)N[C@@H](CO)C(=O)N1CCC[C@H]1C(=O)N[C@@H](CC(C)C)C(=O)N[C@@H](CC(N)=O)C(=O)N[C@H](C(=O)N[C@@H](CO)C(=O)N[C@@H](Cc1ccc(O)cc1)C(=O)N[C@@H](CCCNC(=N)N)C(=O)N[C@@H](CO)C(=O)NCC(=O)N[C@@H](CCC(=O)O)C(=O)O)[C@@H](C)O [Peptide 9019.0121] | 2430 | 5990 | – | 295 | – | 125 | –
CC[C@H](C)[C@H](NC(=O)[C@@H](NC(=O)[C@H](CCC(=O)O)NC(=O)[C@H](CCCCN)NC(=O)[C@H](CCSC)NC(=O)[C@H](CCCCN)NC(=O)[C@H](CO)NC(=O)[C@H](C)NC(=O)[C@@H](NC(=O)[C@H](Cc1ccccc1)NC(=O)[C@H](CCSC)NC(=O)[C@H](CS)NC(=O)[C@@H](N)[C@@H](C)O)C(C)C)[C@@H](C)O)C(=O)N1CCC[C@H]1C(=O)N[C@@H](CC(C)C)C(=O)O [Peptide 9019.0157] | – | – | 36 | – | 61 | – | 17
CC[C@H](C)[C@H](NC(=O)[C@@H](NC(=O)[C@H](CCC(=O)O)NC(=O)[C@H](CCCCN)NC(=O)[C@H](CCSC)NC(=O)[C@H](CCCCN)NC(=O)[C@H](CO)NC(=O)[C@H](C)N)[C@@H](C)O)C(=O)N1CCC[C@H]1C(=O)N[C@@H](CC(C)C)C(=O)N[C@H](C(=O)N[C@@H](C)C(=O)N[C@@H](CCC(=O)O)C(=O)N[C@@H](CCCCN)C(=O)N[C@@H](CC(C)C)C(=O)O)[C@@H](C)O [Peptide 9019.0158] | 130 | > 20000 | – | > 20000 | – | 550 | 220
CC(C)C[C@H](NC(=O)CNC(=O)[C@H](CC(C)C)NC(=O)[C@H](Cc1c[nH]cn1)NC(=O)[C@H](Cc1c[nH]cn1)NC(=O)[C@H](CCCCN)NC(=O)CN)C(=O)N[C@@H](CCC(=O)O)C(=O)N[C@@H](CCC(=O)O)C(=O)N1CCC[C@H]1C(=O)N[C@@H](CCCCN)C(=O)N[C@@H](CCCCN)C(=O)N[C@@H](CC(C)C)C(=O)N[C@@H](CCCNC(=N)N)C(=O)N1CCC[C@H]1C(=O)O [Peptide 9019.0187] | – | 6480 | – | – | 16800 | – | 3100
ELPLQALVMGEGTCE [Peptide 9019.0182] | 1500 | – | – | 6780 | – | 9170 | 15600
LPRVGCPALPLPPPP [Peptide 9019.0173] | 1910 | – | – | 6540 | – | 8940 | > 20000
PDSLPDLSVFQNLQV [Peptide 9019.0051] | > 20000 | – | – | > 20000 | – | > 20000 | > 20000

Source: patent US20140377340A1, “HLA-DR BINDING PEPTIDES AND THEIR USES” (priority 2007, published 2014)
